Laboratory results as given in patent US20040209270A1, “Method for identifying macrocyclic polyketides” (priority 2001, published 2004).

system: biosensor E. coli SM 101 (EBZ512, pEBZ511, pEBZ514); experiment: Luminescence measurements in the agar-plate diffusion assay with the E. coli biosensor system (luciferase reporter under mph(A) promoter / MphR(A) control); type: cell-based; conditions: assay discs, 28° C., 2 to 4 hours or 15 to 24 hours, FIG. 3
Experimental: The agar-plate diffusion assay was incubated at 28° C. for 2 to 4 hours or 15 to 24 hours and luminescence was recorded using a Berthold Luminograph LB980 (FIGS. 3, 4 and 5). If luminescence is stimulated, it is detectable within a diffusion zone around the sample placed. If the sample assayed has, at the same time, an anti-bacterial activity against the sensor organism, which is noticeable as a zone of inhibition in the very preferred embodiment of the longer incubation, then the stimulation of luminescence is detectable outside this halo of inhibition in the sub-lethal concentration range.
(§1) Agar-plate diffusion assay and luminescence measurements using the E. coli biosensor system. Illustration of the selectivity of the biological sensor component. The numbers given in the information on the test substances indicate the amounts of substance applied in μg.
as §1, with “Exemplary illustration” for “Illustration”, “stimulation of luminescence” for “selectivity”, “component as a function of time.” for “component.”

Row | Structure (SMILES) | stimulation of luminescence of the biosensor system
1 | CO[C@@H]1[C@@H](OC(N)=O)[C@@H](O)[C@H](Oc2ccc3c(O)c(NC(=O)c4ccc(O)c(CC=C(C)C)c4)c(=O)oc3c2C)OC1(C)C [novobiocin] | do not cause a stimulation of luminescence
2 | CO[C@H]1C[C@H](O[C@H]2[C@H](C)[C@@H](O[C@@H]3O[C@H](C)C[C@H](N(C)C)[C@H]3O)[C@@H](C)C[C@@]3(CO3)C(=O)[C@H](C)[C@@H](O)[C@@H](C)[C@@H](C)OC(=O)[C@@H]2C)O[C@@H](C)[C@@H]1O [oleandomycin] | indicates
3 | CC[C@H]1OC(=O)[C@H](C)C(=O)[C@H](C)[C@@H](O[C@@H]2O[C@H](C)C[C@H](N(C)C)[C@H]2O)[C@@H](C)C[C@@H](C)C(=O)/C=C/[C@H]1C [narbomycin] | indicates
4 | CN[C@H](CC(C)C)C(=O)N[C@H]1C(=O)N[C@@H](CC(N)=O)C(=O)N[C@H]2C(=O)N[C@H]3C(=O)N[C@H](C(=O)N[C@H](C(=O)O)c4cc(O)cc(O)c4-c4cc3ccc4O)[C@H](O)c3ccc(c(Cl)c3)Oc3cc2cc(c3O[C@@H]2O[C@H](CO)[C@@H](O)[C@H](O)[C@H]2O[C@H]2C[C@](C)(N)[C@H](O)[C@H](C)O2)Oc2ccc(cc2Cl)[C@H]1O [vancomycin] | do not cause a stimulation of luminescence
5 | CC[C@H]1OC(=O)[C@H](C)C(=O)[C@H](C)[C@@H](O[C@@H]2O[C@H](C)C[C@H](N(C)C)[C@H]2O)[C@@H](C)C[C@@H](C)C(=O)/C=C/[C@]1(C)O [picromycin] | indicates
6 | CC[C@H]1OC(=O)[C@H](C)[C@@H](O[C@H]2C[C@@](C)(OC)[C@@H](O)[C@H](C)O2)[C@H](C)[C@@H](O[C@@H]2O[C@H](C)C[C@H](N(C)C)[C@H]2O)[C@](C)(O)C[C@@H](C)CN(C)[C@H](C)[C@@H](O)[C@]1(C)O [azithromycin] | stimulated
7 | CC[C@H]1OC(=O)[C@H](C)[C@@H](O[C@H]2C[C@@](C)(OC)[C@@H](O)[C@H](C)O2)[C@H](C)[C@@H](O[C@@H]2O[C@H](C)C[C@H](N(C)C)[C@H]2O)[C@](C)(OC)C[C@@H](C)C(=O)[C@H](C)[C@@H](O)[C@]1(C)O [clarithromycin] | indicates
8 | CC[C@H]1OC(=O)[C@H](C)[C@@H](O[C@H]2C[C@@](C)(OC)[C@@H](O)[C@H](C)O2)[C@H](C)[C@@H](O[C@@H]2O[C@H](C)C[C@H](N(C)C)[C@H]2O)[C@](C)(O)C[C@@H](C)C(=O)[C@H](C)[C@@H](O)[C@]1(C)O [erythromycin] | indicates
9 | O=C(N[C@H](CO)[C@H](O)c1ccc([N+](=O)[O-])cc1)C(Cl)Cl [chloramphenicol] | do not cause a stimulation of luminescence
10 | CC[C@H]1OC(=O)[C@H](C)[C@@H](O[C@@H]2O[C@H](C)C[C@H](N(C)C)[C@H]2O)[C@@H](C)C[C@@H](C)C(=O)/C=C/[C@]1(C)O [methymycin] | stimulated
11 | C[C@@H]1O[C@@H]1P(=O)(O)O [fosfomycin] | do not cause a stimulation of luminescence

system: microbial biosensor cell (E. coli biosensor system); experiment: Detection of a macrolide-(erythromycin-) producing organism in situ, agar-plate diffusion assay with the biosensor; type: cell-based; conditions: assay disc or culture-covered agar blocks placed on biosensor suspension in soft agar; FIG. 5
Excerpt: For this purpose, the microbial biosensor cell was used in the agar-plate diffusion assay. Agar blocks were placed on the biosensor suspension embedded in soft agar. These agar blocks were covered either with Saccharopolyspora erythraea DSM 40517 described as erythromycin producer or with Streptomyces viridochromogenes DSM 40721 described as avilamycin producer. Another agar block contained no growth.
Agar-plate diffusion assay and luminescence measurements using the E. coli biosensor system. In situ stimulation of luminescence by an erythromycin-producing Saccharopolyspora erythraea culture. The number given in the information on the reference substance erythromycin indicates the amount of substance applied in μg.

Row | Structure (SMILES) | stimulation of luminescence of the biosensor system
12 | CC[C@H]1OC(=O)[C@H](C)[C@@H](O[C@H]2C[C@@](C)(OC)[C@@H](O)[C@H](C)O2)[C@H](C)[C@@H](O[C@@H]2O[C@H](C)C[C@H](N(C)C)[C@H]2O)[C@](C)(O)C[C@@H](C)C(=O)[C@H](C)[C@@H](O)[C@]1(C)O [erythromycin] | stimulation of luminescence was detectable
